In US6503881B2 (priority 1996, dated 2003):
In brackets after ≈: the same amount, converted by molar mass. Where two headings read alike, the source gives them in different places. Peptide text beside a SMILES is read from it.

Experiments:
bacterial isolates = settings: for PIC: with Gentamicin
[1] = tested on: inherently resistant microorganisms
[2] = tested on: microorganisms with acquired resistance
[3] = tested on: microorganisms with acquired resistance; assay: microbe, parasite or virus in culture; settings: Staphylococcus haemolyticus, pair Ampicillin / MBI 26
[4] = S. aureus SA25 (Ciprofloxacin section)

For “KWKSFIKKLTSAAKKVLTTGLPALIS [MBI 29A3]”, the “Peptide MI Alone” value (bacterial isolates; S. aureus SA10 (Ciprofloxacin section)) was 2 µg/mL, the “Peptide MI Alone” value (bacterial isolates; [4]) was 1 µg/mL and the PIC (bacterial isolates; S. maltophilia SMA019) was 0.31. For the same molecule, the PIC (bacterial isolates; S. maltophilia SMA021) was 0.31, the MIC in combination ([1]; S. maltophilia SMA063, pair Amikacin / MBI 29A3) was 4 µg/mL and the “MIC Alone” value ([1]; SMA036) was 64 µg/mL. The “MIC Alone” value ([1]; SMA063) was 8 µg/mL, the “Peptide MIC Alone” value ([2]; EFS014) was 1 µg/mL and the “Peptide MIC Alone” value ([2]; SA25) was 1 µg/mL.
With CC[C@H](C)[C@H](NC(=O)[C@H](C)NC(=O)[C@@H]1CCCN1C(=O)CNC(=O)[C@H](C)NC(=O)[C@@H](NC(=O)[C@H](CCCCN)NC(=O)[C@H](CC(C)C)NC(=O)CNC(=O)[C@H](CO)NC(=O)[C@H](CC(C)C)NC(=O)[C@@H](NC(=O)[C@H](CCCNC(=N)N)NC(=O)[C@H](CCCNC(=N)N)NC(=O)[C@H](Cc1c[nH]c2ccccc12)NC(=O)[C@H](Cc1c[nH]c2ccccc12)NC(=O)[C@H](CCCCN)NC(=O)[C@@H](N)CCCCN)C(C)C)[C@@H](C)O)C(=O)N[C@@H](CCC(N)=O)C(=O)N[C@@H](CO)C(=O)N[C@H](C(=O)N[C@@H](CC(C)C)C(=O)N[C@@H](CC(N)=O)C(=O)N[C@@H](CCCCN)C(=O)O)C(C)C [MBI 21A1, KKWWRRVLSGLKTAGPAIQSVLNK] (H-KKWWRRVLSGLKTAGPAIQSVLNK-OH; N-terminus and C-terminus assumed) the “Peptide MI Alone” value (bacterial isolates; [4]) was 32 µg/mL and the MIC in combination ([1]; S. aureus SA014 MRSA, pair Tobramycin / MBI 21A1) was 16 µg/mL.
Work on CC1(C)S[C@@H]2[C@H](NC(=O)[C@H](N)c3ccccc3)C(=O)N2[C@H]1C(=O)O [Ampicillin] yielded an MIC ([3]; read-out: MIC alone, S. haemolyticus SH8459) of 0.5 µg/mL (≈ 1.43 µM), an MIC ([3]; read-out: MIC alone, S. haemolyticus SH8564) of 64 µg/mL (≈ 183 µM) and an MIC ([3]; read-out: MIC alone, S. haemolyticus SH8575) of 0.5 µg/mL (≈ 1.43 µM). It also gave an MIC ([3]; read-out: MIC alone, S. haemolyticus SH8578) of 0.5 µg/mL (≈ 1.43 µM).
Work on I L K K F P F F P F R R K [MBI 11A1CN] yielded an MIC (bacteria; A. calcoaceticus AC002) of 16 µg/mL, an MIC (bacteria; E. cloacae ECL007) of over 128 µg/mL and an MIC (bacteria; E. coli ECO002) of 32 µg/mL. It also gave an MIC (bacteria; E. faecalis EFS002) of 32 µg/mL, an MIC (bacteria; E. faecium EFM002) of 1 µg/mL and an MIC (bacteria; H. influenzae HIN002) of over 128 µg/mL. The MIC (bacteria; K. pneumoniae KP002) was over 128 µg/mL, the MIC (bacteria; P. aeruginosa PA004) was over 128 µg/mL and the MIC (bacteria; P. vulgaris SBPV1) was over 128 µg/mL. It also gave an MIC (bacteria; S. aureus SA005) of 8 µg/mL, an MIC (bacteria; S. epidermidis SE002) of 16 µg/mL and an MIC (bacteria; S. maltophilia SMA002) of over 128 µg/mL. For the same molecule, the MIC (bacteria; S. marcescens SBSM2) was over 128 µg/mL, the MIC (bacteria; S. pneumoniae SBSPN2) was over 128 µg/mL and the “Peptide MIC + Tobramycin” value ([2]; P. aeruginosa PA026) was 0.125 µg/mL. For the same molecule, the “Ciprofloxacin MIC + Peptide” value ([2]; S. aureus SA10) was 0.125 µg/mL, the “Peptide MIC + Ciprofloxacin” value ([2]; S. aureus SA10) was 64 µg/mL and the “Ciprofloxacin MIC + Peptide” value ([2]; S. aureus SA25) was 0.125 µg/mL. For the same molecule, the “Peptide MIC + Tobramycin” value ([2]; S. maltophilia SMA030) was 64 µg/mL, the “Tobramycin MIC + Peptide” value ([2]; S. maltophilia SMA030) was 2 µg/mL and the FIC ([2]; peptide + Ciprofloxacin, S. aureus SA25) was 0.53. For the same molecule, the FIC ([2]; peptide + Tobramycin, S. maltophilia SMA029) was 0.16 and the FIC ([2]; peptide + Tobramycin, S. maltophilia SMA030) was 0.27.
Work on CC[C@H]1OC(=O)[C@H](C)[C@@H](O[C@H]2C[C@@](C)(OC)[C@@H](O)[C@H](C)O2)[C@H](C)[C@@H](O[C@@H]2O[C@H](C)C[C@H](N(C)C)[C@H]2O)[C@](C)(O)C[C@@H](C)C(=O)[C@H](C)[C@@H](O)[C@]1(C)O [Erythromycin, reference compound] yielded an MIC comb. ([2]; S. aureus SA7609, pair Erythromycin / MBI 26) of 0.5 µg/mL (≈ 0.681 µM), an MIC comb. ([2]; S. aureus SA7795, pair Erythromycin / MBI 26) of 1 µg/mL (≈ 1.36 µM) and an MIC comb. ([2]; S. aureus SA7795, pair Erythromycin / MBI 31) of 4 µg/mL (≈ 5.45 µM). It also gave an MIC comb. ([2]; S. aureus SA7796, pair Erythromycin / MBI 26) of 1 µg/mL (≈ 1.36 µM), an MIC comb. ([2]; S. aureus SA7796, pair Erythromycin / MBI 31) of 2 µg/mL (≈ 2.73 µM) and an MIC comb. ([2]; S. aureus SA7818, pair Erythromycin / MBI 31) of 2 µg/mL (≈ 2.73 µM). It also gave an MIC comb. ([2]; S. epidermidis SE8410, pair Erythromycin / MBI 26) of 0.5 µg/mL (≈ 0.681 µM), an MIC comb. ([2]; S. epidermidis SE8410, pair Erythromycin / MBI 31) of 0.5 µg/mL (≈ 0.681 µM) and an MIC comb. ([2]; S. epidermidis SE8411, pair Erythromycin / MBI 26) of 0.5 µg/mL (≈ 0.681 µM). For the same molecule, the MIC comb. ([2]; S. epidermidis SE8411, pair Erythromycin / MBI 31) was 0.5 µg/mL (≈ 0.681 µM), the MIC comb. ([2]; S. epidermidis SE8503, pair Erythromycin / MBI 26) was 0.5 µg/mL (≈ 0.681 µM) and the MIC comb. ([2]; S. epidermidis SE8503, pair Erythromycin / MBI 31) was 0.5 µg/mL (≈ 0.681 µM). The MIC comb. ([2]; S. epidermidis SE8565, pair Erythromycin / MBI 26) was 0.5 µg/mL (≈ 0.681 µM), the MIC comb. ([2]; S. epidermidis SE8565, pair Erythromycin / MBI 31) was 0.5 µg/mL (≈ 0.681 µM) and the MIC comb. ([2]; S. haemolyticus SH8463, pair Erythromycin / MBI 26) was 0.5 µg/mL (≈ 0.681 µM). It also gave an MIC comb. ([2]; S. haemolyticus SH8463, pair Erythromycin / MBI 31) of 0.5 µg/mL (≈ 0.681 µM), an MIC comb. ([2]; S. haemolyticus SH8472, pair Erythromycin / MBI 26) of 0.5 µg/mL (≈ 0.681 µM) and an MIC comb. ([2]; S. haemolyticus SH8472, pair Erythromycin / MBI 31) of 0.5 µg/mL (≈ 0.681 µM). For the same molecule, the MIC comb. ([2]; S. haemolyticus SH8564, pair Erythromycin / MBI 31) was 2 µg/mL (≈ 2.73 µM), the MIC comb. ([2]; S. haemolyticus SH8575, pair Erythromycin / MBI 26) was 2 µg/mL (≈ 2.73 µM) and the MIC comb. ([2]; S. haemolyticus SH8575, pair Erythromycin / MBI 31) was 2 µg/mL (≈ 2.73 µM). For the same molecule, the MIC comb. ([2]; S. haemolyticus SH8578, pair Erythromycin / MBI 26) was 0.5 µg/mL (≈ 0.681 µM), the MIC comb. ([2]; S. haemolyticus SH8578, pair Erythromycin / MBI 31) was 0.5 µg/mL (≈ 0.681 µM) and the MIC comb. ([2]; S. haemolyticus SH8597, pair Erythromycin / MBI 26) was 0.5 µg/mL (≈ 0.681 µM).
